For assay [1], the system named is Il1b and other genes in PECs. Briefly: Quantitative real-time RT-PCR gene expression in PECs. The conditions noted are these: peritoneal macrophages, FIG. 2E. Type of assay: cell-based, mouse.
Assay [2] deals with IL-1β production in bone marrow derived macrophages. Briefly: IL-1β secretion by LPS/ATP-stimulated bone marrow derived macrophages. To be noted: LPS and ATP. Type of assay: cell-based, mouse. The procedure: FIGS. 6A-6B illustrate the finding that bone marrow macrophages and liver Kupffer cells increase IL-1β in response to adenosine signaling. FIG. 6A: Murine bone marrow derived macrophages (BMDM) were primed with LPS for 16 hours, treated with NECA (10 μM) for 1 hour, and then pulsed with ATP. FIG. 6b: Primary murine liver Kupffer cells were primed with LPS for 16 hours, treated with NECA (10 μM) for 1 hour, and then pulsed with ATP. IL-1β secretion was measured in supernatants 5 hours after pulsing with ATP. Data are expressed as the mean±SD from at least three independent experiments. *p<0.05 determined by Student's t-test.
C57BL/6 mice were purchased from the National Cancer Institute. ASC−/−, Caspase-1−/−, Nlrp3−/− and P2xr7−/− mice have been described (Rock et al., 2010, Annu Rev Immunol. 28:321-42). A2ora2a flox/flox mice and LysMcre mice were purchased from Jackson Laboratories. HIF-1a flox/flox mice were kindly provided by Dr. Ruslan M Medzhitov (Yale University). 7- to 12-week-old males with a variety of genetic manipulations were used in most experiments. […]
Primed PECs were both pulsed for 20 min with 5 mM ATP or 10 μM nigericin, and left untreated until culture supernatants were collected. Secretion of IL-1β was determined by enzyme-linked immunoabsorbent assay (ELISA; R&D Systems).

The structures appear in SMILES notation.

For `CCNC(=O)[C@H]1O[C@@H](n2cnc3c(N)nc(NCCc4ccc(CCC(=O)O)cc4)nc32)[C@H](O)[C@@H]1O` [CGS21680], the “induction of Il1b mRNA expression” value in assay [1] is “increases”.
As to `CCNC(=O)[C@H]1O[C@@H](n2cnc3c(N)ncnc32)[C@H](O)[C@@H]1O` [NECA, 5′-(N-ethylcarboxamido) adenosine], the IL-1β production result in assay [2] is listed as “significantly increased”.

Source of the values: patent publication US10624917B2, “Compositions and methods useful for treating or preventing liver diseases or disorders, and promoting weight loss” (YALE UNIVERSITY, priority 2014, dated 2020).
